Measurements: paper PMC7214099 (Cell reports, 2020)

System: IAV PA 1–192 aa endonuclease
Format: binding

O=C1c2c(O)c(=O)ccn2N([C@@H]2c3ccccc3SCc3c2ccc(F)c3F)[C@@H]2COCCN12 [BXA, Baloxavir acid]
increase in thermostability of IAV endonuclease: 28.1 °C
